Measurements: ChEMBL document CHEMBL5346961, “Discovery and Evaluation of 3-Quinoxalin Urea Derivatives as Potent, Selective, and Orally Available ATM Inhibitors Combined with Chemotherapy for the Treatment of Cancer via Goal-Oriented Molecule Generation and Virtual Screening” (J Med Chem, 2023)
One block for each compound: values may come before it.

Tests used:
[1] = target: T1, Serine-protein kinase ATM (Homo sapiens, UniProt Q13315); assay: Inhibition of ATM (unknown origin) assessed as remaining activity at 0.01 uM preincubated with compound for 30 mins followed by substrate addition and measured after 2 hrs by HTRF method relative to control; conditions: time 2.5 hrs
[2] = target: T1, Serine-protein kinase ATM; assay: Inhibition of ATM (unknown origin) assessed as remaining activity at 1 uM preincubated with compound for 30 mins followed by substrate addition and measured after 2 hrs by HTRF method relative to control; conditions: time 2.5 hrs
HCT-116 = assay: Inhibition of colony formation in human HCT-116 cells at 0.01 uM preincubated for 1 hr followed by exposure to 2 Gy gamma irradiation and measured after 1 week by crystal violet staining based […] assay relative to control; type: functional; conditions: HCT-116, light or radiation study, time 169 hrs
[3] = target: Serine/threonine-protein kinase ATR (Homo sapiens, UniProt Q13535); assay: Inhibition of ATR (unknown origin) assessed as remaining activity at 1 uM in presence of [gamma33P-ATP] by radiometric assay
[4] = Metabolic stability in human liver microsomes assessed as clearance at 1 uM in presence of NADPH-regenerating system by LC-MS/MS analysis; type: ADME, Microsome
[5] = target: T1, Serine-protein kinase ATM; assay: Inhibition of ATM (unknown origin) preincubated with compound for 30 mins followed by substrate addition and measured after 2 hrs by HTRF method
[6] = Metabolic stability in human liver microsomes assessed as half life at 1 uM in presence of NADPH-regenerating system by LC-MS/MS analysis; type: ADME, Microsome

Chain of Serine/threonine-protein kinase ATR (Q13535 whole entry, looked up): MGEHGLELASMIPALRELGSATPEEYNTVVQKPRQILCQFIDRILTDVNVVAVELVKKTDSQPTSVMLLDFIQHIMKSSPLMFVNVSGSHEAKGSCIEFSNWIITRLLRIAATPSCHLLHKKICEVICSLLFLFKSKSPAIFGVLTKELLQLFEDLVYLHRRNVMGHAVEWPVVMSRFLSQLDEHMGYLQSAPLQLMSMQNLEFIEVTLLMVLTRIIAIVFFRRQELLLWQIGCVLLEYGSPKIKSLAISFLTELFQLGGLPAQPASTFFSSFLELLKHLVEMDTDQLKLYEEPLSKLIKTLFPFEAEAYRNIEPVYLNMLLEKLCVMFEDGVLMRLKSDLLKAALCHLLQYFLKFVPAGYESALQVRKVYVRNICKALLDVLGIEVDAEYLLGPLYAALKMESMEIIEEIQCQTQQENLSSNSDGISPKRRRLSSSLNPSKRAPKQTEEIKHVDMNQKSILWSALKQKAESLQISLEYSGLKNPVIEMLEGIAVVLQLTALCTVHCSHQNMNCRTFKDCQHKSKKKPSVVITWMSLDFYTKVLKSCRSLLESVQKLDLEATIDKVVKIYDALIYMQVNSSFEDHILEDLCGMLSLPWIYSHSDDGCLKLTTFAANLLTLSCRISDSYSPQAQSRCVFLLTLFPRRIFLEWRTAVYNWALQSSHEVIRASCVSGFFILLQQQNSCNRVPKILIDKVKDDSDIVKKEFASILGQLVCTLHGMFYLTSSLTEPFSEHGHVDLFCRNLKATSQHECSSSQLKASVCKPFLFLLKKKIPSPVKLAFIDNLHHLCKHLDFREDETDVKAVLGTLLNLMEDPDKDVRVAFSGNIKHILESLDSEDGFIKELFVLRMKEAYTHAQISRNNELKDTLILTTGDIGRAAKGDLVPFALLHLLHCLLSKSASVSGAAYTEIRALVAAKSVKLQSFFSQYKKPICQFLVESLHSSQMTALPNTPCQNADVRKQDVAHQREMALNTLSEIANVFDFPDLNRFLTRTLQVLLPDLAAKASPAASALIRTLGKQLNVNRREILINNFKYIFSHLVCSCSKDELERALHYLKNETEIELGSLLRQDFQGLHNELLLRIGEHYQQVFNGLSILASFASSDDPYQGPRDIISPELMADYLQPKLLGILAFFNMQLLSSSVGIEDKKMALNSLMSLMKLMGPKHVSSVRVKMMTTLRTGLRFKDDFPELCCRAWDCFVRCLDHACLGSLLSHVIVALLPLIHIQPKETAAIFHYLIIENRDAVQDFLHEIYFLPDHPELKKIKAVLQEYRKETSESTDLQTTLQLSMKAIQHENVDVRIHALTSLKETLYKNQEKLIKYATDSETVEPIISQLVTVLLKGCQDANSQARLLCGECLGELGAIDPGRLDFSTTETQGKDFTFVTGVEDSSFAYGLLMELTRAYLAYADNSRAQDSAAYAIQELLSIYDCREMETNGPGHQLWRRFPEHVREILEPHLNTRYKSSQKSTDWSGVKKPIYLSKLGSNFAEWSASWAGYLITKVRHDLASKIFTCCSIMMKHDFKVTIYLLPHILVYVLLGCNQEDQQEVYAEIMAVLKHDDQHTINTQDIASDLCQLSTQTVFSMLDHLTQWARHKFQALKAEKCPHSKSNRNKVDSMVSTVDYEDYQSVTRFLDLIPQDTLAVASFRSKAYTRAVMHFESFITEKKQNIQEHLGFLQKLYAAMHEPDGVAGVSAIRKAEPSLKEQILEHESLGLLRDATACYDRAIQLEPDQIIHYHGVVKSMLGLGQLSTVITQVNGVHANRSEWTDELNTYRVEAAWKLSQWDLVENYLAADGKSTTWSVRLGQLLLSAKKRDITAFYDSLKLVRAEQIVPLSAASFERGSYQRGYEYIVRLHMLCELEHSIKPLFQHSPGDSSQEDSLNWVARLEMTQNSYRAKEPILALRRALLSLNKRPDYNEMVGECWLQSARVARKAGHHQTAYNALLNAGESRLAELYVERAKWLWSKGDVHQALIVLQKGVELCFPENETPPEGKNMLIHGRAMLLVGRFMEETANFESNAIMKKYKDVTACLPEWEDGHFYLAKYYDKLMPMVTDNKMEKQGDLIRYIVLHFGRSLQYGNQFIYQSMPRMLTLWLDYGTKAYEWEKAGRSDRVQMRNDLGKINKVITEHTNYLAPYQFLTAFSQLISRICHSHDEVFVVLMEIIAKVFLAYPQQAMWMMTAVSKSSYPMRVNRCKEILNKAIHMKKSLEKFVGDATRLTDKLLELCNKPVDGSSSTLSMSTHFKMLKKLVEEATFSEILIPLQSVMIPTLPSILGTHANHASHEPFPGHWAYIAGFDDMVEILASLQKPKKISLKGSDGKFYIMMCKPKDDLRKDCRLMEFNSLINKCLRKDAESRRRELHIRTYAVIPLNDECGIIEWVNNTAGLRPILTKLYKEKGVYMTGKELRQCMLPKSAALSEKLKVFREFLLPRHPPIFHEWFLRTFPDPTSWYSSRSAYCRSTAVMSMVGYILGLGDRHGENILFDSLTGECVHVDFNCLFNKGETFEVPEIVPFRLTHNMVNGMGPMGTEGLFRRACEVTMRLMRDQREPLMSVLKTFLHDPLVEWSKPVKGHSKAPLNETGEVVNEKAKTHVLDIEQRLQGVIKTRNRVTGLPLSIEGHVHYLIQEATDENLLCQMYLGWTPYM

SMILES: CN(C)CCCOc1ccc(-c2ccc3ncc(N(C)C(=O)Nc4ccc(Cl)cc4)nc3c2)cn1
Activity [1]: 37% | inhibition at 0.01 µM (HCT-116): 11.7% | Activity [3]: 111%

SMILES: CCNC(=O)N(C)c1cnc2ccc(-c3ccc(OCCCN(C)C)nc3)cc2n1
CLH [4]: 127 mL/min/g | Activity [1]: 33% | IC50 [5]: 6 nM | inhibition at 0.01 µM (HCT-116): 57.8% | half-life at 1 µM [6]: 11 min | Activity [3]: 104%

SMILES: CCCNC(=O)N(C)c1cnc2ccc(-c3ccc(OCCCN(C)C)nc3)cc2n1
CLH [4]: 84 mL/min/g | Activity [1]: 12% | IC50 [5]: 3 nM | inhibition at 0.01 µM (HCT-116): 77.4% | half-life at 1 µM [6]: 16 min | Activity [3]: 102%

SMILES: CN(C)CCCOc1ccc(-c2ccc3ncc(N(C)C(=O)Nc4cccc(C(F)(F)F)c4)nc3c2)cn1
Activity [1]: 39% | inhibition at 0.01 µM (HCT-116): -11.9% | Activity [3]: 109%

SMILES: CC1CCC(NC(=O)N(C)c2cnc3ccc(-c4ccc(OCCCN(C)C)nc4)cc3n2)CC1 (stereo unspecified)
CLH [4]: 93 mL/min/g | Activity [1]: 8% | IC50 [5]: 2 nM | inhibition at 0.01 µM (HCT-116): 76.2% | half-life at 1 µM [6]: 19 min | Activity [3]: 94%

SMILES: CC(C)NC(=O)Nc1cnc2ccc(-c3ccc(OCCCN(C)C)nc3)cc2n1
CLH [4]: 94 mL/min/g | Activity [2]: -4% | half-life at 1 µM [6]: 15 min | Activity [3]: 98%

SMILES: C=CCNC(=O)Nc1cnc2ccc(-c3ccc(OCCCN(C)C)nc3)cc2n1
CLH [4]: 151 mL/min/g | Activity [2]: -3% | half-life at 1 µM [6]: 9 min | Activity [3]: 101%

SMILES: CC(C)NC(=O)N(C)c1cnc2ccc(-c3ccnc(OCCCN4CCCCC4)c3)cc2n1
Activity [1]: 97% | Activity [2]: 10% | inhibition at 0.01 µM (HCT-116): 32.2%

SMILES: CC(C)NC(=O)N(C)c1cnc2ccc(-c3cnc(OCCCN4CCCCC4)c(F)c3)cc2n1
Activity [1]: 94% | Activity [2]: 6% | inhibition at 0.01 µM (HCT-116): -3.96%

SMILES: CN(C)CCCOc1ccc(-c2ccc3ncc(N(C)C(=O)N[C@]45C[C@@H]6C[C@H](C[C@@H](C6)C4)C5)nc3c2)cn1
CLH [4]: 19 mL/min/g | Activity [1]: 37% | IC50 [5]: 8 nM | inhibition at 0.01 µM (HCT-116): -3.67% | half-life at 1 µM [6]: 73 min | Activity [3]: 101%

SMILES: CC(C)NC(=O)N(C)c1cnc2ccc(-c3cnc(OCCCN4CCCCC4)cc3F)cc2n1
Activity [1]: 29% | Activity [2]: -3% | IC50 [5]: 5 nM | inhibition at 0.01 µM (HCT-116): 27.4%

SMILES: Cc1cc(-c2ccc3ncc(N(C)C(=O)NC(C)C)nc3c2)cnc1OCCCN1CCCCC1
Activity [1]: 107% | Activity [2]: 29% | inhibition at 0.01 µM (HCT-116): -28.4%

SMILES: Cc1cc(OCCCN2CCCCC2)ncc1-c1ccc2ncc(N(C)C(=O)NC(C)C)nc2c1
Activity [1]: 96% | Activity [2]: 22% | inhibition at 0.01 µM (HCT-116): -19.8%

SMILES: COc1ccc(NC(=O)N(C)c2cnc3ccc(-c4ccc(OCCCN(C)C)nc4)cc3n2)cc1
CLH [4]: 45 mL/min/g | Activity [1]: 22% | IC50 [5]: 3 nM | inhibition at 0.01 µM (HCT-116): -0.75% | half-life at 1 µM [6]: 51 min | Activity [3]: 120%

SMILES: CC(C)NC(=O)N(C)c1cnc2ccc(-c3ccc(OCCCN4CCCCC4)nc3C#N)cc2n1
CLH [4]: 5.1 mL/min/g | Activity [1]: 26% | Activity [2]: -4% | IC50 [5]: 16 nM | inhibition at 0.01 µM (HCT-116): 14% | half-life at 1 µM [6]: 277 min

SMILES: CN(C)CCCOc1ccc(-c2ccc3ncc(N(C)C(=O)NC(C)(C)C)nc3c2)cn1
CLH [4]: 100 mL/min/g | Activity [1]: 22% | IC50 [5]: 13 nM | inhibition at 0.01 µM (HCT-116): 44.7% | half-life at 1 µM [6]: 14 min | Activity [3]: 98%

SMILES: CC(C)NC(=O)N(C)c1cnc2ccc(-c3cnc(OCCCN4CCCCC4)c(C(F)(F)F)c3)cc2n1
Activity [1]: 90% | Activity [2]: 10% | inhibition at 0.01 µM (HCT-116): -13.6%

SMILES: CN(C)CCCOc1ccc(-c2ccc3ncc(NC(=O)NC(C)(C)C)nc3c2)cn1
CLH [4]: 185 mL/min/g | Activity [2]: -2% | half-life at 1 µM [6]: 8 min | Activity [3]: 94%

SMILES: CN(C)CCCOc1ccc(-c2ccc3ncc(NC(=O)NC4CCCC4)nc3c2)cn1
CLH [4]: 144 mL/min/g | Activity [2]: -5% | half-life at 1 µM [6]: 10 min | Activity [3]: 98%

SMILES: CC(C)NC(=O)N(C)c1cnc2ccc(-c3ccc(OC4CCC(N(C)C)CC4)nc3)cc2n1 (stereo unspecified)
Activity [1]: 108% | Activity [2]: 54% | inhibition at 0.01 µM (HCT-116): 11.3%

SMILES: CC(C)NC(=O)N(C)c1cnc2ccc(-c3ccc(OC(C)CN(C)C)nc3)cc2n1 (stereo unspecified)
CLH [4]: 43 mL/min/g | Activity [1]: 94% | Activity [2]: 4% | inhibition at 0.01 µM (HCT-116): 14.7% | half-life at 1 µM [6]: 55 min

SMILES: CCCNC(=O)Nc1cnc2ccc(-c3ccc(OCCCN(C)C)nc3)cc2n1
CLH [4]: 120 mL/min/g | Activity [2]: -4% | half-life at 1 µM [6]: 12 min | Activity [3]: 99%

The next lines start with results.

Activity [1]: 100% | Activity [2]: 25%
SMILES: CC(C)NC(=O)N(C)c1cnc2ccc(-c3ccc(OC4CCN(C)CC4)nc3)cc2n1
inhibition at 0.01 µM (HCT-116): -7.74%

CLH [4]: 36 mL/min/g | Activity [1]: 43% | Activity [2]: 0% | IC50 [5]: 22 nM | half-life at 1 µM [6]: 55 min
SMILES: CC(C)NC(=O)N(C)c1cnc2ccc(-c3ccc(OCC4CCCN(C)C4)nc3)cc2n1 (stereo unspecified)
inhibition at 0.01 µM (HCT-116): -8.09%

CLH [4]: 51 mL/min/g | Activity [1]: 43% | Activity [2]: -3% | IC50 [5]: 10 nM | half-life at 1 µM [6]: 48 min
SMILES: CC(C)NC(=O)N(C)c1cnc2ccc(-c3ccc(OCCC4CCCN4C)nc3)cc2n1 (stereo unspecified)
inhibition at 0.01 µM (HCT-116): 36.5%

CLH [4]: 47 mL/min/g | Activity [1]: 86% | Activity [2]: 4% | half-life at 1 µM [6]: 38 min
SMILES: CC(C)NC(=O)N(C)c1cnc2ccc(-c3ccc(OCCN4CCCCC4)nc3)cc2n1
inhibition at 0.01 µM (HCT-116): 24%

CLH [4]: 37 mL/min/g | Activity [1]: 73% | Activity [2]: -2% | IC50 [5]: 30 nM | half-life at 1 µM [6]: 46 min
SMILES: CC(C)NC(=O)N(C)c1cnc2ccc(-c3ccc(OCCN(C)C)nc3)cc2n1
inhibition at 0.01 µM (HCT-116): -0.98%

CLH [4]: 60 mL/min/g | Activity [1]: 66% | Activity [2]: -1% | IC50 [5]: 26 nM | half-life at 1 µM [6]: 35 min
SMILES: CC(C)NC(=O)N(C)c1cnc2ccc(-c3ccc(OCCCCN(C)C)nc3)cc2n1
inhibition at 0.01 µM (HCT-116): 20.2%

Activity [1]: 97% | Activity [2]: 22%
SMILES: CC(C)NC(=O)N(C)c1cnc2ccc(-c3ccc(OCCN4CCN(C)CC4)nc3)cc2n1
inhibition at 0.01 µM (HCT-116): 22.8%

CLH [4]: 40 mL/min/g | Activity [1]: 72% | Activity [2]: 1% | IC50 [5]: 31 nM | half-life at 1 µM [6]: 50 min
SMILES: CC(C)NC(=O)N(C)c1cnc2ccc(-c3ccc(OCC4CCN(C)C4)nc3)cc2n1 (stereo unspecified)
inhibition at 0.01 µM (HCT-116): 32.9%

CLH [4]: 19 mL/min/g | Activity [1]: 106% | Activity [2]: 71% | half-life at 1 µM [6]: 90 min
SMILES: CC(C)NC(=O)N(C)c1cnc2ccc(-c3ccc(OCCCN4CCCC4=O)nc3)cc2n1
inhibition at 0.01 µM (HCT-116): 33.7%

Activity [2]: 33%
SMILES: CC(C)CCCOc1ccc(-c2ccc3ncc(N(C)C(=O)NC(C)C)nc3c2)cn1

Activity [1]: 94% | Activity [2]: 13%
SMILES: CC(C)NC(=O)N(C)c1cnc2ccc(-c3ccc(OCCN4CCOCC4)nc3)cc2n1
inhibition at 0.01 µM (HCT-116): 16.9%

Activity [1]: 103% | Activity [2]: 43%
SMILES: COCCCOc1ccc(-c2ccc3ncc(N(C)C(=O)NC(C)C)nc3c2)cn1
inhibition at 0.01 µM (HCT-116): -24.2%

Activity [1]: 76% | Activity [2]: 1%
SMILES: CC(C)NC(=O)N(C)c1cnc2ccc(-c3ccc(OCCN4CCCC4)nc3)cc2n1
inhibition at 0.01 µM (HCT-116): 25%
